Data published in patent publication US20140370177A1, “COMPOSITIONS” (Givaudan S.A., priority 2011, published 2014).

How the values were obtained:
Format in all cases: in vivo, human
[1] = test system: sweet sensitive panelists; test: Ranking test in water, sucrose iso-intensity, formal sensory panel (R-index); details: for More Sweet Sample / R-index: in water
Protocol: (§1) The sensory evaluation was conducted using a ranking method. Samples at ambient temperature were randomly presented in 20 ml blind aliquots (unidentifiable by panelists). Panels consisted of 20 sweet sensitive subjects and samples were presented in 2 replications over 1 session. After tasting each sample, the mouth was rinsed thoroughly with water at ambient temperature prior to tasting the next sample. Panelists were presented with 0.5%, 1.0%, and 1.5% sucrose solutions in water and two samples of stevioside/rebaudioside A at 30 and 45 ppm in water, respectively. Subjects were asked to rank the samples from low to high with respect to perceived sweet taste. R-indices were calculated for 30 and 45 ppm stevioside/rebaudioside A samples versus either 0.5%, 1.0% or 1.5% sucrose.
The sensory evaluation was conducted using the same method as described in Example 4. Panels consisted of 20 sweet sensitive subjects and samples were presented in 2 replications over 1 session. Panelists were presented with 20 mL of 0.5%, 1.0%, and 1.5% sucrose solutions in water and two samples of stevioside/rebaudioside A (3:1) at 35 and 40 ppm in water, respectively. Subjects were asked to rank the samples from low to high with respect to perceived sweet taste. R-indices were calculated for 35 and 40 ppm stevioside/rebaudioside A samples versus either 0.5%, 1.0% or 1.5% sucrose.
Two ounces of each sample was presented in random order to 20 sweet sensitive panelists. In two replications (over 1 session), Panelists were asked to rank the samples from least sweet to most sweet. The data were subjected to an R-index analysis.

[2] = test system: sweet sensitive panelists; test: Iso-intensity in 5% sucrose solution (sweetness enhancement), formal sensory panel (R-index)
Protocol: as §1
The sensory evaluation was conducted using the same method as described in Example 4. Panels consisted of 20 sweet sensitive subjects and samples were presented in 2 replications over 1 session. Panelists were presented with 20 mL of 5.5%, 6.0%, 6.5%, 7.0%, 8.0% sucrose solutions and one sample of 35 ppm stevioside/rebaudioside A in 5.0% sucrose, respectively. Subjects were asked to rank the samples from low to high with respect to perceived sweet taste. R-indices were calculated for 35 ppm stevioside/rebaudioside A in 5.0% sucrose sample versus either 6.0%, 6.5%, 7.0% or 8.0% sucrose.
The objective of this test was to determine the extent to which stevioside enhances sweetness perception of a 5% sucrose solution.
This example examined the effect of 30 ppm rebaudioside A on top of 5% sucrose.

experienced tasters = test: Comparison of upfront sweetness on top of 5% sucrose solution, 5 experienced tasters
Protocol: Two mixtures, stevioside/rebaudioside A (3:1) and (2:1) were evaluated for their upfront sweetness in comparison with pure stevioside and rebaudioside A. Sensory evaluation was carried out with 5 experienced tasters. 30 ppm of stevioside/rebaudioside A (3:1), (2:1), and Rebaudioside A on top of 5% sucrose solution were prepared along with 20, 35, 45, 75 ppm stevioside in 5% sucrose solutions. Samples were prepared fresh and at room temperature and were paired and tasted with water rinsing in-between.

[3] = 5% sucrose + 30 ppm RebA vs. 5% sucrose
[4] = 5% sucrose + 30 ppm RebA vs. 6% sucrose
[5] = 5% sucrose + 30 ppm RebA vs. 7% sucrose
[6] = 30 ppm Stevioside vs. 0.5% sucrose
[7] = 30 ppm Stevioside vs. 1.0% sucrose
[8] = 30 ppm Stevioside vs. 1.5% sucrose
[9] = 30 ppm Stevioside vs. 40 ppm Stevioside
[10] = 40 ppm Stevioside vs. 0.5% sucrose
[11] = 40 ppm Stevioside vs. 1.0% sucrose
[12] = 40 ppm Stevioside vs. 1.5% sucrose
[13] = 5% sucrose + 35 ppm Stevioside vs. 5.0% sucrose
[14] = 5% sucrose + 35 ppm Stevioside vs. 6.0% sucrose
[15] = 5% sucrose + 35 ppm Stevioside vs. 7.0% sucrose

C=C1C[C@@]23CC[C@H]4[C@@](C)(CCC[C@@]4(C)C(=O)O[C@@H]4O[C@H](CO)[C@@H](O)[C@H](O)[C@H]4O)[C@@H]2CC[C@]1(O[C@@H]1O[C@H](CO)[C@@H](O)[C@H](O[C@@H]2O[C@H](CO)[C@@H](O)[C@H](O)[C@H]2O)[C@H]1O[C@@H]1O[C@H](CO)[C@@H](O)[C@H](O)[C@H]1O)C3 [rebaudioside A]
Iso-intense sucrose concentration ([1]; 30 ppm, iso-intensity study): 1 % sucrose | More Sweet Sample [2, 3]: 5% sucrose + | R-index [2, 3]: 1.313 | More Sweet Sample [2, 4]: 5% sucrose + | R-index [2, 4]: 22.625 | More Sweet Sample [2, 5]: 7% sucrose | R-index [2, 5]: 89.000 | Isosweet sucrose concentration by interpolation ([2]; 30 ppm in 5% sucrose): 6.5 % sucrose | Sucrose equivalence in enhancement ([2]; 30 ppm on top of 5% sucrose): 0.5 % sucrose equivalence

C=C1C[C@@]23CC[C@H]4[C@@](C)(CCC[C@@]4(C)C(=O)O[C@@H]4O[C@H](CO)[C@@H](O)[C@H](O)[C@H]4O)[C@@H]2CC[C@]1(O[C@@H]1O[C@H](CO)[C@@H](O)[C@H](O)[C@H]1O[C@@H]1O[C@H](CO)[C@@H](O)[C@H](O)[C@H]1O)C3 [Stevioside, stevioside]
Description of upfront sweetness (experienced tasters; 20, 35, 45, 75 ppm in 5% sucrose solutions): delayed onset and lack of the upfront sweetness | Ranking of sweetness (experienced tasters; 75 ppm in 5% sucrose solution): ranked as the sweetest but not the most upfront one | More Sweet Sample [1, 6]: 30 ppm | R-index [1, 6]: 25.625 | More Sweet Sample [1, 7]: 1.0% sucrose | R-index [1, 7]: 66.938 | More Sweet Sample [1, 8]: 1.5% sucrose | R-index [1, 8]: 94.750 | More Sweet Sample [1, 9]: 40 ppm | R-index [1, 9]: 80.188 | Sucrose equivalence of sweetness by interpolation ([1]; 30 ppm in water): 0.75 % sucrose | Isosweet sucrose concentration determined from 30 and 40 ppm data ([1]; 35 ppm in water): 1.0 % sucrose | More Sweet Sample [1, 10]: 40 ppm | R-index [1, 10]: 11.375 | More Sweet Sample [1, 11]: 40 ppm | R-index [1, 11]: 29.094 | More Sweet Sample [1, 12]: 1.5% sucrose | R-index [1, 12]: 82.219 | Sucrose equivalence of sweetness by interpolation ([1]; 40 ppm in water): 1.25 % sucrose | More Sweet Sample [2, 13]: 5% sucrose + | R-index [2, 13]: 8.281 | More Sweet Sample [2, 14]: 5% sucrose + | R-index [2, 14]: 21.094 | More Sweet Sample [2, 15]: 7.0% sucrose | R-index [2, 15]: 78.125 | Iso-sweet sucrose concentration by interpolation ([2]; 35 ppm in 5% sucrose): 6.5 % sucrose | Additional sucrose equivalence (sweetness enhancing effect) ([2]; 35 ppm on top of 5% sucrose): 0.5 % sucrose equivalence
